Data reported in US20250109388A1, “METHOD FOR ISOLATING AND CONCENTRATING EXTRACELLULAR VESICLE GROUP DERIVED FROM CANCER CELL, ANALYSIS METHOD, DRUG SELECTION METHOD, KIT, AND ANTI-CANCER AGENT” (THE UNIVERSITY OF TOKYO, priority 2022, published 2025).

Legend:
human adipocytes [1] = assay: Glycerin release (lipolysis) from human adipocytes treated with EVs; format: cell-based; conditions: for Released glycerin level from adipocytes treated with Panc-1 EVs in presence of inhibitor: 10 μM H89, 0.5 μM orlistat, Cay10499
Protocol: (§1) Data are in terms of mean±SD (n=3). **P=0.0025. […] Data are in terms of mean±SD (n=3). […] P=0.65.
FIG. 15 This figure is a graph of glycerin release from adipocytes treated for 24 hours with EVs (1.5 μg) derived from Panc-1 cells, in the presence or absence of an inhibitor of endocytosis. The dosage of the inhibitor is as described in FIG. 14. Data are in terms of mean±SD (n=3). P=0.40 (CPZ), *P=0.027 (Nocodazole), *P=0.012 (CytD). **P=0.0065 (Nystatin), and **P=0.0074 (4° C.); comparison with cells treated with EV alone (control). Statistical analyses were carried out using Welch's t-test. […]
EVs having a mode diameter of 100 to 150 nm were isolated from various sources, except for EVs of about 240 nm derived from Capan-2 cells. […] The expression of exosome markers such as TSG101 and CD63 in EVs was confirmed, whereby it was confirmed that EV isolation was appropriate (see FIG. 1). To investigate the effect of EV, mature human adipocytes were induced from human adipose-derived mesenchymal stem cells (hAD-MSCs) and subjected to an EV treatment (see FIGS. 2 to 4). […] Miapapaca-2 cells, and BxPC-3 cells, but it was not observed in adipocytes treated with EVs derived from Capan-2 cells (see FIG. 5).

human adipocytes [2] = assay: EV internalization into human adipocytes by β-actin-HiBiT luciferase activity; format: cell-based; conditions: Panc-1 EVs, 1 hour; 20 IM CPZ, 10 μM nocodazole, 20 μM CytD, 2.5 μg/mL nystatin
Protocol: The luciferase level is a luciferase level 5 of adipocytes treated for 1 hour with EV ([…]) in the presence or absence of a treatment with an endocytosis inhibitor (20 IM chlorpromazine (CPZ), 10 μM nocodazole, 20 μM cytochalasin D (CytD), or 2.5 μg/mL nystatin, or incubation at 4° C.), which is a value indicated in terms of comparison with a negative control (PBS). Data are in terms of mean±SD (n=3). P=0.74 (CPZ), *P=0.029 (nocodazole), *P=0.032 (CytD), **P=0.0078 (nystatin), and **P=0.0074 (4° C.); comparison with cells treated with EV alone (control).
Wild type: EVs derived from Panc-1 cells (not expressing HiBiT) as a negative control, EV-H and EV-L: EVs derived from Panc-1-ACTB-HiBiT cells cultured with high glucose and low glucose, respectively. […] P=0.61 (EV-H versus EV-L). […] P=0.72. […] The relative luciferase level of adipocytes treated for 1 hour with 10^9 particles of EVs (EV-H and EV-L) derived from Panc-1-ACTB-HiBiT cells was compared with the negative control (PBS). Data are in terms of mean±SD (n=3). **P=0.0011.
Wild type; Panc-1 cells (not expressing HiBiT) as a negative control, EV and EV-NP40; EVs derived from Panc-1-ACTB-HiBiT cells. 10^9 particles per sample were used. Data are in terms of mean±SD (n=3). **P=0.0017 (EV), **P<[…] (EV-NP40), and **P=0.0026 (EV versus EV-NP40). […] The luciferase level of the lysate of adipocytes treated for 1 hour with EVs (10^9 particles) derived from Panc-1-ACTB-HiBiT cells or EV-NP40 was compared with the negative control (PBS), and the results are shown. Data are in terms of mean±SD (n=3). *P=0.045. Statistical analyses were carried out using Welch's t-test.
β-actin is contained as a pan-EV marker in most EVs derived from human serum and human cell lines. To monitor the EV endocytosis level, a reporter cell (Panc-1-ACTB-HiBiT cell) was established by knocking in the HiBiT peptide sequence at the 3′ terminal of the ACTB locus of Panc-1 cell (see FIGS. 11 and 12). A high luciferase activity was detected in a lysate of cells and in EVs derived from these cells, and thus it was confirmed that the β-actin-HiBiT protein is present in the EVs (see FIGS. 13(A) and 13(B).
The luciferase level of the adipocyte lysate was upregualted 1 hour after the addition of EV and was similar to a level in a case where chlorpromazine, a clathrin-mediated endocytosis inhibitor, was used. […] (see FIG. 14).

adipocytes = assay: Isoproterenol-induced glycerin release from adipocytes; format: cell-based, human
Text: as §1
Further, the dependence of the lipolysis induced by EV, under newly synthesized cAMP, was investigated. In general, a β-stimulant such as isoproterenol activates G proteins, and it subsequently activates adenylyl cyclase, which leads to the synthesis of cAMP.

[3] = 30 μM SQ22536, 24-hour treatment

| SMILES | Released glycerin level from adipocytes treated with Panc-1 EVs in presence of inhibitor (human adipocytes [1]) | Luciferase level of adipocyte lysate (EV internalization) with endocytosis inhibitor, vs EV alone (human adipocytes [2]) | other results |
| --- | --- | --- | --- |
| O=S(=O)(NCCNC/C=C/c1ccc(Br)cc1)c1cccc2cnccc12 [H89] | significantly reduced | – | – |
| CN(C)CCCN1c2ccccc2Sc2ccc(Cl)cc21 [chlorpromazine] | – | similar | – |
| C[C@@H]1[C@H](O)[C@@H](C)/C=C/C=C/CC/C=C/C=C/C=C/C=C/C(O[C@H]2O[C@H](C)[C@@H](O)[C@H](N)[C@@H]2O)CC2O[C@](O)(CC(O)C(O)CCC(O)CC(O)CC(O)CC(=O)O[C@H]1C)CC(O)C2C(=O)O (stereo partly shown) [nystatin] | – | significantly lower | – |
| CC(C)NCC(O)c1ccc(O)c(O)c1 (stereo not shown) [isoproterenol] | – | – | Lipolysis in adipocytes (glycerin release) (adipocytes; 10 μM isoproterenol): induces lipolysis |
| COC(=O)Nc1nc2ccc(C(=O)c3cccs3)cc2[nH]1 [nocodazole] | – | significantly lower | – |
| COc1nn(-c2ccc(NC(=O)OCc3ccccc3)c(C)c2)c(=O)o1 [Cay10499] | significantly reduced | – | – |
| Nc1ncnc2c1ncn2C1CCCO1 (stereo not shown) [SQ22536] | – | – | Inhibition of isoproterenol-induced lipolysis (adipocytes; [3]): significantly inhibited; Inhibition of lipolysis induced by EVs derived from Panc-1 (human adipocytes [1]; [3]): did not inhibit |
| CCCCCCCCCCC[C@@H](C[C@@H]1OC(=O)[C@H]1CCCCCC)OC(=O)[C@H](CC(C)C)NC=O [Orlistat] | significantly reduced | – | – |
| C=C1[C@@H](C)[C@H]2[C@H](Cc3ccccc3)NC(=O)[C@]23[C@H](OC(C)=O)/C=C/[C@@](C)(O)C(=O)[C@@H](C)C/C=C/[C@H]3[C@@H]1O [cytochalasin D] | – | significantly lower | – |
